Experimental data: publication PMC5323270 (SLAS discovery, 2016)
Values after ≈ are worked out from the molar mass of the structure shown. Where two headings read alike, the source gives them in different places.

Assays:
M. tuberculosis H37Rv [1] = assay: microbe, parasite or virus in culture; assay type: cell-based; details: Mycobacterium tuberculosis, read-out: MIC90 LORA
M. tuberculosis H37Rv [2] = assay: microbe, parasite or virus in culture; assay type: cell-based; details: Mycobacterium tuberculosis, read-out: MIC90 MABA

`CO[C@H]1/C=C/O[C@@]2(C)Oc3c(C)c(O)c4c(O)c(c(/C=N/N5CCN(C)CC5)c(O)c4c3C2=O)NC(=O)/C(C)=C\C=C\[C@H](C)[C@H](O)[C@@H](C)[C@@H](O)[C@@H](C)[C@H](OC(C)=O)[C@@H]1C` [Rifampin (RMP), Rifampin] showed an MIC90 (M. tuberculosis H37Rv [1]) of 0.46 µM (≈ 0.379 µg/mL) and an MIC90 (M. tuberculosis H37Rv [2]) of 0.13 µM (≈ 0.107 µg/mL).
